Assay results: patent US11684660B2, “Human PD1 peptide vaccines and uses thereof” (OHIO STATE INNOVATION FOUNDATION, priority 2017, dated 2023)
No end group written: not given here.

Experiments:
[1] = biological target: T1, extracellular domain of human PD-L1 (hPD-L1) (Homo sapiens, UniProt Q9NZQ7); assay: BIACORE SPR binding to immobilized rhPD-L1; details: 1 μM peptide; for SPR response of peptide binding to immobilized rhPD-L1: 1 min at 10 μl/min
T1 construct: Recombinant hPD-L1 ectodomain was immobilized onto the gold surface of a CM5 sensor chip
T1 sequence (Q9NZQ7 19-238 limits assumed): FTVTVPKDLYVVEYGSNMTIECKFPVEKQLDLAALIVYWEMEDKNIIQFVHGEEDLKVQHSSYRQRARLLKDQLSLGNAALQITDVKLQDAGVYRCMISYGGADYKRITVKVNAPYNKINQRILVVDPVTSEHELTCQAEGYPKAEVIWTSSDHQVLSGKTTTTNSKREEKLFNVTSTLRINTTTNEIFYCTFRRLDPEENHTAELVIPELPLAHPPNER
Procedure: To test the activity of all the selected peptides, surface plasmon resonance (SPR) spectroscopy (BIACORE™ T200, at […]) was used to measure their binding affinities to the extracellular domain of human PD-L1 (hPD-L1). Recombinant hPD-L1 ectodomain was immobilized onto the gold surface of a CM5 sensor chip by direct amine coupling.
(§1) 1 μM BSA was used as the negative control. The chip was regenerated by 10 mM Glycine-HCl, pH 2.5(FIG. 3E).
(§2) 1 μM of various PD-1 peptides were injected over the chip for 1 min at 10 μl/min followed by 1 min dissociation and then 1 min regeneration with 10 mM Glycine-HCl, pH 2.5 for each run.

[2] = system: Nivolumab; assay: BIACORE SPR binding to immobilized Nivolumab; details: 1 μM peptide; for SPR response of peptide binding to immobilized Nivolumab: 1 min at 10 μl/min
Procedure: as §1, §2

[3] = system: murine colon carcinoma CT26 tumor cells; assay: CT26 tumor challenge in Balb/c mice immunized with PD-1 constructs; assay type: in vivo; details: for median terminal tumor weight: end of study; for median terminal tumor weight / median tumor size LWH, Day 19 / median tumor size LWW, Day 19 / median tumor size LWH, Day 14 / median tumor size LWW, Day 14: 5 mice/group; for difference in tumor size distribution versus controls: exact Wilcoxon rank-sum test, two-sided, unadjusted; for median tumor size LWH, Day 14: ½*length*width*height; for median tumor size LWW, Day 14: ½*length*width*width; for inhibition of tumor growth: Day 14, FIG. 15
Procedure: Immunocompetent Balb/c mice of 6-8 weeks of age were purchased from Charles River Laboratories, Wilmington, Mass. and housed in The Ohio State University's University Laboratory Animal Resources (ULAR) facilitates. Isoflurane was used to anaesthetize the animals before cells injection and termination. Pre-immune sera samples were taken from the mice then they were immunized with 100 μg of peptide emulsified in Montanide ISA 720 (Seppic, Paris, France) and nor-MDP adjuvant (N-acetyl-glucosamine-3 yl-acetyl L-alanyl-D-isoglutamine). Mice received booster immunizations 3 and 6 weeks after the first. Several test sera samples were taken from the mice (FIG. 8).
10 days after the second boost, mice were inoculated with […] murine colon carcinoma CT26 tumor cells subcutaneous on the right flank. Tumor growth was monitored three times a week and sera samples were taken weekly and upon sacrifice of the animal. Control mice on day 0 were engrated with 1×10^5 CT26 tumor cells subcutaneous and received. The animals received 150 μg injections of anti-mouse antibodies directed against PD-1. Mice were monitored and scored for the formation of palpable tumors twice weekly and sacrificed if tumors became necrotic or exceeded the predetermined size of 2,000 mm3. Tumor diameters were measured twice a week. Tumor size was calculated according to the formula: V=[(length ×width2)/2]. Tumor volumes were measured in cubic millimeters with calipers and calculated with the following formula: A×B2×0.5, where A is the largest diameter, and B is the smallest diameter. All experiments were performed in accordance with the U.S. Public Health Service Policy on Humane Care and Use of Laboratory Animals and approved by the Ohio State University Institutional Animals Care and Use Committee and detailed in the accepted protocol
To assess performance of 4 different vaccine treatments on tumor growth, tumor size was measured periodically in mice, and the results were compared to those of positive and negative controls. There were 5 mice in each treatment group, each receiving the assigned MVF-peptide and then being inoculated with 1e5 CT26 (colon) tumor cells 10 days after the final boost of the treatment. Day 14 was considered the primary time point of interest, as the investigators believed waiting until day 19 allowed the tumors too much time to grow, resulting in similar sizes at that point of the experiment. Tumor size was measured in three ways: LWW (½*length*width*width) at all time points, LWH (½*length*width*height) at all time points, and terminal tumor weight at the end of the study. The mice treated with MVF-PD-a(45), group C, were sacrificed before day 19 due to the death of one mouse, so the comparisons can only be made between tumor size at day 14. Tumor size is in units of mm3 for LWW and LWH and grams for terminal tumor weight.
Due to small sample sizes in each group and inability to assume normality, the exact Wilcoxon rank-sum test was used to check for systematic differences between the distributions of tumor size at times 14 days and 19 days (FIGS. 12A-D and Tables 7-10). P-values given are for test comparing that column's control to the respective treatment, and are two-sided to account for the possibility of tumor size being systematically larger or smaller between treatment and control. As this is preliminary data, the p-values are not adjusted for multiple comparisons. Overall, there were few instances of significant differences between the distributions of a control and a treatment.
Immunocompetent Balb/c mice (5 mice/gp) of 6-8 weeks of age were immunized with 100 μg of peptide emulsified in Montanide ISA 720 (Seppic, Paris, France) and nor-MDP adjuvant (N-acetyl-glucosamine-3 yl-acetyl L-alanyl-D-isoglutamine). […]

[4] = system: human IgG; assay: BIACORE SPR binding to immobilized human IgG; details: 1 μM injected 3 min at 10 μl/min
Procedure: 126. […] 1 μM BSA was used as the negative control. The chip was regenerated by 10 mM Glycine-HCl, pH 2.5(FIG. 3E).

[5] = system: CD4+CD25+FoxP3+ Tregs; assay: Immune-profiling of T cells in spleen and tumor by flow cytometry; assay type: in vivo, Balb/c mice
Procedure: CD4 and CD8 cells were determined by flow cytometry (gated on CD45+CD3+ cells). Foxp3+CD25+CD4 T regulatory cells were determined by intracellular staining. All CD4 and CD8 T cells were gated on CD45+CD3+ cells. Tregs were gated on CD45+CD3+CD4+ cells. Group A=control peptide, Group B=32-50; Group C=45-64; Group D=73-90; Group E=92-110; Group F=α-mouse PD-1 (positive control).
The tumor and tumor draining lymph nodes were collected for subsequent FACS analysis to study the immune response in mice. Cells suspensions were prepared from tissues either by mechanistic dissociation or by enzymatic digestion. The stained cells were analyzed with a LSR II flow cytometer (BD Biosciences) equipped with 3 excitation lasers at wavelengths 405, 488 and 633 nm. CD8+ T cells and CD4+CD25+ T cells from tumor leucocytes were purified either on a MACS column or FACSAria.
Flow cytometric analysis was performed to evaluate the expression of surface markers (CD45, CD3, CD4, CD8 and CD25) and transcription factor FoxP3 in splenocytes and tumor infiltrating T cells. Briefly, spleens were removed from mice and pressed through cell strainers, followed by a short incubation with red blood cells lysis buffer to lyse the red blood cells. Cells were then collected, washed, and resuspended in staining buffer (1% BSA in PBS). Similarly, tumors were removed from mice and pressed through cell strainers, followed by one wash with 37% percoll. The tumor cells were then washed with PBS and resuspended in staining buffer. The splenocytes and tumor cells were incubated with mAbs to the cell-surface markers for 30 min at 4° C. After washing twice with staining buffer, cells were fixed and permeabilized using Cytofix/Cytoperm solution for 60 min at 4° C. Cells were stained for FoxP3 for 30 min at 4° C. 80,000-100,000 live cell events were acquired on a FACSCanto (BD) and analyzed using FlowJo software (Tree Star, Inc.). To differentiate infiltrating cells from tumor cells, the tumor cells were first gated on CD45+ cells. Then the CD3+CD4+ and CD3+CD8+ cells were analyzed. Tregs were represented by CD4+CD25+FoxP3+ cells. […] Group E had the lowest Treg.

| Substance | binding to immobilized rhPD-L1 (in words) [1] | binding to immobilized Nivolumab (in words) [2] | difference in tumor size distribution versus controls [3] | median tumor size LWH, Day 14 [3] | median tumor size LWW, Day 14 [3] | further results |
| --- | --- | --- | --- | --- | --- | --- |
| CH3CONH-GAISLAPKAQIKESLRAEL-CONH2 (Ac-GAISLAPKAQIKESLRAEL-NH2) [AC-PD-1 (92-110)] | bind | bind | – | – | – | – |
| KLLSLIKGVIVHRLEGVE-GPSL-VLNWYRMSPSNQTDKLAAF-CONH2 (KLLSLIKGVIVHRLEGVEGPSLVLNWYRMSPSNQTDKLAAF-NH2) [MVF-PD-1 (32-50)] | – | – | no significant differences | 420 mm3 | 486 mm3 | SPR response of peptide binding to immobilized Nivolumab [2]: 20 RU; median terminal tumor weight [3]: 0.92 grams; median tumor size LWH, Day 19 [3]: 900 mm3; median tumor size LWW, Day 19 [3]: 1080 mm3 |
| H2N-KLAAFPEDRSQPGQDCRFR-CONH2 (H-KLAAFPEDRSQPGQDCRFR-NH2) [PD-1 (45-64)] | second stronger binder | second stronger binder | – | – | – | – |
| CH3CONH-KLAAFPEDRSQPGQDCRFR-CONH2 (Ac-KLAAFPEDRSQPGQDCRFR-NH2) [AC-PD-1 (45-64)] | bind | bind | – | – | – | – |
| rhPD-1: recombinant human PD-1 (hPD-1) ectodomain used to validate the sensor chip | – | – | – | – | – | SPR response on immobilized human IgG (chip validation) [4]: didn't show any binding signal |
| KLLSLIKGVIVHRLEGVE-GPSL-KLAAFPEDRSQPGQDCRFR-CONH2 (KLLSLIKGVIVHRLEGVEGPSLKLAAFPEDRSQPGQDCRFR-NH2) [MVF-PD-1 (45-64)] | bind | – | no significant differences | 448 mm3 | 550 mm3 | SPR response of peptide binding to immobilized rhPD-L1 [1]: around 110 RU; inhibition of tumor growth [3]: not inhibitory; Treg population in spleen compared to Group A (negative control) ([5]; splenocytes, FIG. 10A): increased Treg population; Tregs in tumor ([5]; tumor infiltrating cells, FIG. 10B): increased Treg development in tumor microenvironment |
| KLLSLIKGVIVHRLEGVE-GPSL-DFHMSVVRARRNDSGTYL-CONH2 (KLLSLIKGVIVHRLEGVEGPSLDFHMSVVRARRNDSGTYL-NH2) [MVF-PD-1 (73-90)] | bind | bind | no significant differences | 346.5 mm3 | 405 mm3 | SPR response of peptide binding to immobilized rhPD-L1 [1]: around 110 RU; SPR response of peptide binding to immobilized Nivolumab [2]: 1000 RU; inhibition of tumor growth [3]: not inhibitory; median terminal tumor weight [3]: 0.93 grams; median tumor size LWH, Day 19 [3]: 768 mm3; median tumor size LWW, Day 19 [3]: 968 mm3 |
| CH3CONH-DFHMSVVRARRNDSGTYL-CONH2 (Ac-DFHMSVVRARRNDSGTYL-NH2) [AC-PD-1 (73-90)] | bind | bind | – | – | – | – |
| H2N-DFHMSVVRARRNDSGTYL-CONH2 (H-DFHMSVVRARRNDSGTYL-NH2) [PD-1 (73-90)] | much stronger binding | much stronger binding | – | – | – | – |
